The source of these data is patent publication US4272437A, “Antibacterial agents, and 4-thio azetidinone intermediates” (priority 1979, dated 1981).

Converted amounts (≈) assume the structure as drawn. Read-outs that look alike come from different tables or passages of the source.

In experiment [1] the test system is Ps. aeruginosa A-9843A. The experiment is described as follows: MIC, tube dilution, Pseudomonas aeruginosa A9843A. The following applies: Pseudomonas aeruginosa, A9843A, read-out: Minimum Inhibitory Concentration (M.I.C.), Pseudomonas aeruginosa A9843A; overnight 37° C. Type of experiment: cell-based. The source says: (§1) Representative compounds of the present invention were subjected to in vitro antibiotic screening against a variety of microorganisms.

Experiment [2] concerns Staph. aureus A-9537 and 50% serum. The experiment is described as follows: MIC, tube dilution, Staph. aureus A9537 + 50% serum. It counts as cell-based, Staphylococcus aureus. The conditions noted are these: Staphylococcus aureus, overnight 37° C., read-out: Minimum Inhibitory Concentration (M.I.C.).
From the text: as §1

Experiment [3] concerns Staph. aureus (Meth-Res) A-15097. The experiment is described as follows: MIC, tube dilution, Staphylococcus aureus A15097 (Meth-Res). The conditions noted are these: overnight 37° C.; for MIC: Staphylococcus aureus. It counts as cell-based.
From the text: as §1

The test system of experiment [4] is Pr. morganii A-15153. The experiment is described as follows: MIC, tube dilution, Proteus morganii A15153. The conditions noted are these: Morganella morganii, A15153, Proteus morganii A15153; overnight 37° C.; read-out: Minimum Inhibitory Concentration (M.I.C.). Type of experiment: cell-based.
From the text: as §1

For experiment [5], the system named is K. pneumoniae A-15130. Nature of the experiment: MIC, tube dilution, Klebsiella pneumoniae A15130. Type of experiment: cell-based. The following applies: Klebsiella pneumoniae, A15130, K. pneumoniae A15130; overnight 37° C.; read-out: Minimum Inhibitory Concentration (M.I.C.).
From the text: as §1

Experiment [6] concerns E. coli A-15119. The experiment is described as follows: MIC, tube dilution, Escherichia coli A15119. Type of experiment: cell-based. The following applies: Escherichia coli, A15119, E. coli A15119; overnight 37° C.; read-out: Minimum Inhibitory Concentration (M.I.C.).
From the text: as §1

Experiment [7] has as its system Klebsiella species A20468. Nature of the experiment: MIC, tube dilution, Klebsiella species A20468. Type of experiment: cell-based. The conditions noted are these: Klebsiella species (K. pneumoniae) A20468; overnight 37° C.; read-out: Minimum Inhibitory Concentration (M.I.C.).
From the text: as §1

In experiment [8] the test system is Pr. mirabilis A-9900. Nature of the experiment: MIC, tube dilution, Proteus mirabilis A9900. It counts as cell-based. The following applies: Proteus mirabilis, A9900, Proteus mirabilis A9900; overnight 37° C.; read-out: Minimum Inhibitory Concentration (M.I.C.).
From the text: as §1

The subject of experiment [9] is Proteus rettgeri A21203. Nature of the experiment: MIC, tube dilution, Proteus rettgeri A21203. The conditions noted are these: Providencia rettgeri, overnight 37° C., read-out: Minimum Inhibitory Concentration (M.I.C.). Type of experiment: cell-based.
From the text: as §1

For experiment [10], the system named is Proteus vulgaris A21559. Nature of the experiment: MIC, tube dilution, Proteus vulgaris A21559. Type of experiment: cell-based. The conditions noted are these: Proteus vulgaris, A21559, Proteus vulgaris A21559; overnight 37° C.; read-out: Minimum Inhibitory Concentration (M.I.C.).
From the text: as §1

Experiment [11] deals with Staph. aureus (Pen-Res) A-9606. Nature of the experiment: MIC, tube dilution, Staphylococcus aureus A9606 (Pen-Res). Type of experiment: cell-based. The following applies: Staphylococcus aureus, overnight 37° C.
From the text: as §1

Experiment [12] relates to Staph. aureus A-9537. Nature of the experiment: MIC, tube dilution, Staphylococcus aureus A9537. The following applies: overnight 37° C., Nutrient Broth; for MIC: Staphylococcus aureus, A9537, Staph. aureus A9537, read-out: Minimum Inhibitory Concentration (M.I.C.). Type of experiment: cell-based.
From the text: as §1

Experiment [13] deals with Ser. marcescens A-20019. The experiment is described as follows: MIC, tube dilution, Serratia marcescens A20019. Type of experiment: cell-based. The following applies: Serratia marcescens, A20019, Serratia marcescens A20019; overnight 37° C.; read-out: Minimum Inhibitory Concentration (M.I.C.).
From the text: as §1

Experiment [14] concerns Ps. aeruginosa A-21213. The experiment is described as follows: MIC, tube dilution, Pseudomonas aeruginosa A21213. The conditions noted are these: overnight 37° C., read-out: Minimum Inhibitory Concentration (M.I.C.). It counts as cell-based.
From the text: as §1

The subject of experiment [15] is Str. pneumoniae A-9585. The experiment is described as follows: MIC, tube dilution, Streptococcus pneumoniae A9585. Type of experiment: cell-based. The conditions noted are these: Streptococcus pneumoniae, A9585, Str. pneumoniae A9585; overnight 37° C., Nutrient Broth; read-out: Minimum Inhibitory Concentration (M.I.C.).
From the text: as §1

Experiment [16] has as its system E. coli A-20341-1. The experiment is described as follows: MIC, tube dilution, Escherichia coli A20341-1. It counts as cell-based.
From the text: as §1

Experiment [17] relates to Ent. cloacae A-9656. Nature of the experiment: MIC, tube dilution, Enterobacter cloacae A9656. Type of experiment: cell-based. The following applies: overnight 37° C., read-out: Minimum Inhibitory Concentration (M.I.C.).
From the text: as §1

The subject of experiment [18] is Str. faecalis A-20688. The experiment is described as follows: MIC, tube dilution, Streptococcus faecalis A20688. It counts as cell-based. The conditions noted are these: Enterococcus faecalis, A20688, Str. faecalis A20688; overnight 37° C.; read-out: Minimum Inhibitory Concentration (M.I.C.).
From the text: as §1

Experiment [19] deals with Str. pyogenes A-9604. The experiment is described as follows: MIC, tube dilution, Streptococcus pyogenes A9604. Type of experiment: cell-based. The conditions noted are these: overnight 37° C., Nutrient Broth; for MIC: Streptococcus pyogenes, A9604, Str. pyogenes A9604, read-out: Minimum Inhibitory Concentration (M.I.C.).
From the text: as §1

The test system of experiment [20] is Ent. cloacae A-9659. Nature of the experiment: MIC, tube dilution, Enterobacter cloacae A9659. Type of experiment: cell-based. The following applies: Enterobacter cloacae, A9659, Enterobacter cloacae A9659; overnight 37° C.; read-out: Minimum Inhibitory Concentration (M.I.C.).
From the text: as §1

Where [21] appears, read: Staph. aureus A15097 (Meth-Res), read-out: Minimum Inhibitory Concentration (M.I.C.).
Setting [22] is: A21203, Proteus rettgeri A21203.
Setting [23] is: Staph. aureus A9606 (Pen-Res), read-out: Minimum Inhibitory Concentration (M.I.C.).
The mark [24] stands for this setting: Escherichia coli, A203411, E. coli A20341-1; overnight 37° C.; read-out: Minimum Inhibitory Concentration (M.I.C.).
Setting [25] is: Enterobacter cloacae, A9656, Enterobacter cloacae A9656.

Take `C[C@@H](O)[C@H]1C(=O)N2C(C(=O)O)=C(COCCN)S[C@H]12` (relative stereo) [66,96]: the MIC in experiment [1] worked out at 16 µg/mL (≈ 55.5 µM); in experiment [2], 0.5 µg/mL; in [3] (setting [21]) it was 1 µg/mL (≈ 3.47 µM); in experiment [4], 4 µg/mL (≈ 13.9 µM); in experiment [5], 2 µg/mL (≈ 6.94 µM); in experiment [6] it was 0.5 µg/mL (≈ 1.73 µM). For the same molecule, the MIC in [7] is 2 µg/mL (≈ 6.94 µM); in [8], 1 µg/mL (≈ 3.47 µM); in [9] (setting [22]), 2 µg/mL (≈ 6.94 µM); in [10] it was 1 µg/mL (≈ 3.47 µM); in experiment [11] (setting [23]), 0.25 µg/mL (≈ 0.867 µM); in experiment [12], 0.06 µg/mL (≈ 0.208 µM). In addition, the MIC in experiment [13] was determined as 2 µg/mL (≈ 6.94 µM); in [14] (Pseudomonas aeruginosa, A21213, Pseudomonas aeruginosa A21213) it was 8 µg/mL (≈ 27.7 µM); in experiment [15], 0.03 µg/mL (≈ 0.104 µM); in experiment [16] (setting [24]), 0.5 µg/mL (≈ 1.73 µM); in [17] (setting [25]), 2 µg/mL (≈ 6.94 µM); in experiment [18], 4 µg/mL (≈ 13.9 µM). Besides, the MIC in experiment [19] was determined as 0.03 µg/mL (≈ 0.104 µM); in experiment [20], 8 µg/mL (≈ 27.7 µM).

On to `CC1=C(C(=O)O)N2C(=O)[C@@H]([C@@H](C)O)[C@H]2S1` (relative stereo) [Example 58, (1'R,5R,6R) and (1'S,5S,6S) 6-(1'-Hydroxy-1'-ethyl)-2-methylpenem-3-carboxylic Acid (isomer D)], for which the “Minimum Inhibitory Concentration (M.I.C.)” value was 16 µg/mL in [3] (Staph. aureus A15097 (Meth-Res)), 4 µg/mL in experiment [12] (Staph. aureus A9537) and 2 µg/mL in [19] (Str. pyogenes A9604).

Take `CC1=C(C(=O)O)N2C(=O)[C@@H]([C@H](C)O)[C@H]2S1` (relative stereo) [Example 61, (1'S,5R,6R and 1'R,5S,6S) 6-(1'-Hydroxy-1'-ethyl)-2-methylpenem-3-carboxylic Acid (isomer A)]: the MIC stood at 63 µg/mL (≈ 275 µM) in experiment [1]; 4 µg/mL in experiment [2]; 2 µg/mL (≈ 8.72 µM) in experiment [3] (setting [21]); 8 µg/mL (≈ 34.9 µM) in experiment [4]; 8 µg/mL (≈ 34.9 µM) in [5]; 2 µg/mL (≈ 8.72 µM) in [6]. The MIC was determined as 63 µg/mL (≈ 275 µM) in [7]; 2 µg/mL (≈ 8.72 µM) in [8]; 2 µg/mL (≈ 8.72 µM) in [9] (setting [22]); 4 µg/mL (≈ 17.4 µM) in experiment [10]; 1 µg/mL (≈ 4.36 µM) in experiment [11] (setting [23]); 0.5 µg/mL (≈ 2.18 µM) in [12]. Moreover, the MIC was found to be 8 µg/mL (≈ 34.9 µM) in [13]; 0.03 µg/mL (≈ 0.131 µM) in experiment [15]; 8 µg/mL (≈ 34.9 µM) in experiment [16] (setting [24]); 32 µg/mL (≈ 140 µM) in experiment [17] (setting [25]); 2 µg/mL (≈ 8.72 µM) in experiment [18]; 0.06 µg/mL (≈ 0.262 µM) in experiment [19]. For the same molecule, the MIC in [20] amounted to 8 µg/mL (≈ 34.9 µM).

As for `O=C(O)C1=C(C2CC2)SC2CC(=O)N12` (stereo not shown) [Example 14, 2-Cyclopropylpenem-3-carboxylic Acid], the MIC in experiment [1] came to 125 µg/mL (≈ 592 µM); in experiment [2] it was 16 µg/mL; in experiment [3] (setting [21]), 2 µg/mL (≈ 9.47 µM); in experiment [4], 16 µg/mL (≈ 75.7 µM); in [5], 16 µg/mL (≈ 75.7 µM); in experiment [6], 4 µg/mL (≈ 18.9 µM). In addition, the MIC is more than 125 µg/mL in experiment [7]; 4 µg/mL (≈ 18.9 µM) in [8]; 4 µg/mL (≈ 18.9 µM) in experiment [9] (setting [22]); 0.13 µg/mL (≈ 0.615 µM) in experiment [12]; 8 µg/mL (≈ 37.9 µM) in experiment [13]; 125 µg/mL (≈ 592 µM) in experiment [14] (Pseudomonas aeruginosa A21213). Besides, the MIC in experiment [15] was determined as 0.06 µg/mL (≈ 0.284 µM); in experiment [16] (setting [24]), 63 µg/mL (≈ 298 µM); in experiment [17] (setting [25]) it was 16 µg/mL (≈ 75.7 µM); in [18], 63 µg/mL (≈ 298 µM); in experiment [19], 0.25 µg/mL (≈ 1.18 µM); in experiment [20], 16 µg/mL (≈ 75.7 µM).

Consider `O=C([O-])C1=C(CO)S[C@@H]2CC(=O)N12.[Na+]` [Preparation 20, Sodium 2-Hydroxymethylpenem-3-carboxylate], for which the MIC in experiment [1] came to 125 µg/mL; in experiment [2], 16 µg/mL; in experiment [3] (read-out: Minimum Inhibitory Concentration (M.I.C.), Staph. aureus A15097 (Meth-Res)), 8 µg/mL; in experiment [4], 32 µg/mL; in experiment [5], 63 µg/mL; in experiment [6] it was 16 µg/mL. The MIC in experiment [7] is more than 125 µg/mL; in [8], 16 µg/mL; in experiment [9] (Proteus rettgeri A21203), 32 µg/mL; in experiment [11] (read-out: Minimum Inhibitory Concentration (M.I.C.), Staph. aureus A9606 (Pen-Res)), 4 µg/mL; in experiment [12] it was 2 µg/mL; in experiment [13], 32 µg/mL. For the same molecule, the MIC in [14] (Pseudomonas aeruginosa A21213) is more than 125 µg/mL; in [15], 0.25 µg/mL; in [16] (Escherichia coli, A203411; E. coli A20341-1; overnight 37° C.; read-out: Minimum Inhibitory Concentration (M.I.C.)) it was 63 µg/mL; in [17] (Enterobacter cloacae A9656), 32 µg/mL; in experiment [18], more than 125 µg/mL; in experiment [19], 1 µg/mL. For the same molecule, the MIC in experiment [20] was found to be 63 µg/mL.
